Data from the RepoRT retention time repository (doi:10.1021/acs.analchem.7b00925).

Assay: HILIC, Merck SeQuant ZIC-HILIC, 100 × 2.1 mm, 3.5 µm, 25 °C, 0.3 mL/min, estimated dead time 0.73 min; A: water + 0.1% formic acid, pH 3; B: acetonitrile + 0.1% formic acid, pH 3; gradient (min/%B) 0/95 1.5/95 13.5/40 15.5/40 29.7/25 33.5/25 34.5/95 41.5/95
Conditions: stereoisomer not certain

Structure (SMILES)	LC retention time [min]
CC(=O)NC(CCCNC(N)=O)C(=O)O (stereo unspecified) [Acetylcitrulline]	5.09
NCCc1c[nH]c2ccc(O)cc12 [Serotonin]	7.73
O=S(=O)(O)CCNC1CCCCC1 [CHES]	5
Nc1ncnc2c1ncn2C1OC(COP(=O)(O)O)C(O)C1O (stereo unspecified) [Adenosine mono-phosphate]	8.41
NC(CCC(=O)O)C(=O)NC(Cc1ccc(O)cc1)C(=O)O (stereo unspecified) [a-glutamyl-tyrosine]	7.57
NC(CCCC(N)C(=O)O)C(=O)O (stereo unspecified) [2,6-diaminopimelic acid]	11.1
O=C(O)Cc1c[nH]c2ccc(O)cc12 [5-hydroxyindoleacetate]	3.62
CC(O)C(O)c1cnc2nc(N)[nH]c(=O)c2n1 (stereo unspecified) [Biopterin]	6.01
OC1COC(O)C(O)C1O (stereo unspecified) [Xylose]	6.03
NCCCCC(N)C(=O)O (stereo unspecified) [Lysine]	12.5
NC(=NCCCC(N)C(=O)O)NC(CC(=O)O)C(=O)O (stereo unspecified) [Argininosuccinic acid]	11.3
CC(O)C(=O)C1=Nc2c(nc(N)[nH]c2=O)NC1 (stereo unspecified) [Sepiapterin]	4.63
O=C(O)c1ccc2ccccc2n1 [Quinaldic acid]	1.24
OCCNCCO [Diethanolamine]	8.22
CC(=O)NCCc1c[nH]c2ccc(O)cc12 [N-acetyl-5-hydroxytryptamine]	2.03
O=S(=O)(O)CCN1CCN(CCS(=O)(=O)O)CC1 [PIPES]	9.12
O=C(O)[C@H]1NCCC1O (stereo partly specified) [3-hydroxyproline]	8.12
COC(=O)c1cccnc1 [Methyl nicotinic acid]	1.16
CNCC(=O)O [Sarcosine]	7.67
CC(CCC(=O)NCCS(=O)(=O)O)C1CCC2C3C(O)CC4CC(O)CCC4(C)C3CC(O)C12C (stereo unspecified) [Taurocholic acid]	4.75
Cn1cnc2[nH]c(=O)[nH]c(=O)c21 [7-methylxanthine]	2.72
O=C(O)CNC(=O)c1ccco1 [2-furoylglycine]	1.46
O=c1[nH]c(=O)c2cn[nH]c2[nH]1 [Alloxanthine]	4.27
O=C(NCC(=O)N1CCCC1C(=O)O)C1CCCN1 (stereo unspecified) [Proline-glycine-proline]	7.66
CN1C(=O)CCC1c1cccnc1 (stereo unspecified) [Cotinine]	5.16
CNCC(O)c1ccc(O)c(O)c1 (stereo unspecified) [Adrenaline]	8.61

Structure (SMILES)	LC retention time [min]
CC(=O)N[C@H]1C(O)O[C@H](CO)[C@@H](O)[C@@H]1O (stereo partly drawn) [N-Acetyl-D-glucosamine]	6.24
CC(=O)NC(Cc1ccccc1)C(=O)O (stereo unspecified) [N-acetylphenylalanine]	1.58
CC(CCC(=O)O)C1CCC2C3C(O)CC4CC(O)CCC4(C)C3CCC12C (stereo unspecified) [Chenodeoxycholic acid]	1.3
CC(C)C(NC(=O)CN)C(=O)O (stereo unspecified) [Glycyl-valine]	7.08
CS(=O)CCC(N)C(=O)O (stereo unspecified) [Methionine sulfoxide]	8.59
CCC(=O)OC(CC(=O)[O-])C[N+](C)(C)C (stereo unspecified) [Propionylcarnitine]	4.5
Nc1ccc(O)cc1 [4-Aminophenol]	8.1
CCNC(=O)CC[C@H](N)C(=O)O [L-Theanine]	7.58
CC(=O)NC(CCC(=O)O)C(=O)O (stereo unspecified) [N-acetylglutamate]	3.71
CC(=O)NC(CCCC[NH3+])C(=O)[O-] (stereo not drawn) [N-Alpha-acetyllysine]	8.42
CS(=O)(=O)CCC(N)C(=O)O [L-methionine sulfone]	7.89
COC(=O)c1ccccn1 [Methylpicolinate]	1.06
CC(=O)NC(Cc1cnc[nH]1)C(=O)O (stereo unspecified) [N,N-Acetylhistidine]	8.16
NC(CCS)C(=O)O (stereo unspecified) [Homocysteine]	7.41
NC(N)=NCCCC(=O)O [4-Guanidinobutanoic acid]	7.51
NC(=O)CCC(N)C(=O)O (stereo unspecified) [Glutamine]	8.52
OCC1OC(OC2(CO)OC(CO)C(O)C2O)C(O)C(O)C1O (stereo unspecified) [Sucrose]	7.32
CC(C)(CO)C(O)C(=O)NCCC(=O)O (stereo unspecified) [Pantothenic acid]	2.31
O=c1[nH]cnc2c1ncn2C1CC(O)C(CO)O1 (stereo unspecified) [2-deoxyinosine]	4.69
CN(C)C(=N)N=C(N)N [Metformin]	8.84
NCCCCN=C(N)N [Agmatine]	15.3
Cn1c(=O)[nH]c2[nH]c(=O)n(C)c2c1=O [1,7-dimethyluric acid]	3.78
NCC(O)c1ccc(O)cc1 (stereo unspecified) [Octopamine]	7.57
Cc1ncc(CO)c(C(=O)O)c1O [4-pyridoxic acid]	4.14
CN1CCCN=C1C=Cc1cccs1 [Pyrantel]	2.3
